Key:
Format in all cases: cell-based, human
KB cells [1] = experiment: Binding and internalization of dendrimers by confocal microscopy; details: 250 nM, 24 hours, compared to control conjugates
Description: (§1) Flow Cytometry and Confocal Microscopy. The standard fluorescence of the dendrimer solutions was quantified using a Beckman spectrofluorimeter. For flow cytometric analysis of the uptake of the targeted polymer, cells were trypsinized and suspended in PBS containing 0.1% bovine serum albumin (PBSB) and analyzed using a Becton Dickinson FACScan analyzer. The FL1-fluorescence of 10,000 cells was measured and the mean fluorescence of gated viable cells was quantified. Confocal microscopic analysis was performed in cells plated on a glass cover-slip, using a Carl Ziess confocal microscope. Fluorescence and differential interference contrast (DIC) images were collected simultaneously using an argon laser, using the appropriate filters for FITC.
(§2) The effect of free FA on the uptake of the dendrimers was tested in KB cells that express both high and low FAR. The binding of the conjugates to the low FAR-expressing KB cells was 30% of that of the high FAR-expressing cells for both the G5-FITC-FA and G5-FITC-FA-MTX (See, for e.g., FIG. 19, left panel). […] The binding and internalization of the dendrimers to KB cells was assessed by confocal microscopy. KB cells were incubated with 250 nM of the indicated dendrimers for 24 hours and confocal images were taken. Conjugates containing the targeting molecule FA internalized into KB cells within 24 h (See, e.g., FIG. 20).

KB cells [2] = experiment: Inhibition of cell growth by XTT assay
Description: (§3) Cell culture and treatment.
Evaluation of dendrimer cytotoxicity.
Because the binding of the conjugate to KB cells reaches maximal uptake within 1 h (Quintana et al, 2002. Pharmaceutical Research 19: 1310-1316.), the effect of the G5-FI-FA-MTX on cell growth was initially tested by pre-incubation of cells with the conjugate for 1 h, followed by incubation in a drug-free medium for 5 d. […] When the cells were pre-incubated with dendrimers for 4 h, there was a modest decrease of about 10% in cell growth as determined by XTT assay. The cytotoxicity measurements were therefore done by incubation with the dendrimer for a minimum of 24 h, a pre-incubation time period shown to induce significant cytotoxicity.
The inhibition of cell growth induced by the conjugates was also tested by XTT assay which is based on the conversion of XTT to formazan by the active mitochondria of live cells (See, e.g., Roehm et al, J Immunol Methods 142, 257 (1991)).
As free FA blocks the uptake of the dendrimers as well as rescues cells from MTX-induced cytotoxicity, the effect of pre-incubation of cells with excess FA on the anti-proliferative effect of G5-FITC-FA-MTX was tested. KB cells were exposed to different concentrations of the conjugate or free MTX for 24 h in the absence or presence of 50 μM FA. The incubation medium was removed, the cells were rinsed and incubated with fresh medium for 5 additional days in the absence of the drugs, and the XTT assay was performed (See, e.g., FIG. 24, □, ▪, represents cells treated with MTX; Δ, ▴, represents cells treated with G5-FITC-FA-MTX).
The anti-proliferative effect of the MTX-conjugates was compared to conjugates that lacked either the FA or the FITC molecule. KB cells were incubated with 30 nM of the conjugates (=150 nM effective MTX concentration) for 24 h and the incubation medium was removed. The cells were rinsed and incubated for an additional 5 d in fresh medium in the absence of the drugs, and the XTT assay was performed.

[3] = tested on: KB cells which express a high cell surface FA receptor (FAR); experiment: Cellular uptake/binding of dendrimers in high-FAR KB cells, flow cytometry
Description: as §3, §1
The cellular uptake of the dendrimers was measured in KB cells which express a high cell surface FA receptor (FAR). The FA-conjugated dendrimers bound to the cells in a dose-dependent fashion, with 50% binding at 10-15 nM for both the G5-FITC-FA and G5-FITC-FA-MTX, while the control dendrimer G5-FITC was not detected in the KB cells (See, e.g., FIG. 18A). Identical binding curves were obtained for the G5-FITC-FA and G5-FITC-FA-MTX when the fluorescence obtained was normalized for the quenching observed in the standard solutions of the dendrimers (See e.g., FIG. 18B).
as §2

[4] = tested on: low FAR-expressing KB cells; experiment: Cellular uptake/binding of dendrimers in low-FAR KB cells, flow cytometry
Description: as §3, §1, §2
Time course and dose dependent inhibition of cell growth.

Substance: G5-(Ac)82-(FITC)5-(FA)5-MTX5 [G5-FITC-FA-MTX]
- cell morphology indicating cytotoxicity (KB cells [1]): less adherent and rounded up
- inhibition of cell growth, XTT (KB cells [2]; 1, 2 or 3 days): time-dependent cytotoxicity
- decrease in cell growth (KB cells [2]; pre-incubated 4 h, XTT assay): about 10%
- growth-inhibitory effect (KB cells [2]; pre-incubation 1 h, then drug-free medium 5 d): failed to show any growth-inhibitory effect
- time to maximal binding ([3]; 100 nM): ≤ 30 min
- effect of free FA on uptake, high-FAR expressing cells ([3]; 50 μM FA, dendrimer 30 nM): completely blocked
- binding to low FAR-expressing KB cells relative to high FAR-expressing cells [4]: 30%
- effect of free FA on uptake, low-FAR expressing cells ([4]; 50 μM FA, dendrimer 30 nM): completely blocked

Source: US20090104119A1, “Dendrimer Based Compositions And Methods Of Using The Same” (priority 2004, published 2009)
